The conditions of this data set: 101.33 kPa, Liquid, Vibrating tube method.

The term mass density denotes the mass of a sample divided by its volume.

Numbers after ± are expanded uncertainties.

As for `[2H]C(C)O` (stereo not given) [ethanol-1-d], the mass density reads like this: (278.15 K) 818.95 ± 0.14 kg/m3; (288.15 K) 810.32 ± 0.14 kg/m3; (298.15 K) 801.57 ± 0.14 kg/m3; (308.15 K) 792.68 ± 0.15 kg/m3; (318.15 K) 783.63 ± 0.15 kg/m3.
On the same counts, the results for `CCO` [ethanol] are 802.08 ± 0.11 kg/m3, 793.6 ± 0.12 kg/m3, 785.03 ± 0.12 kg/m3, 776.35 ± 0.12 kg/m3 and 767.54 ± 0.13 kg/m3.
